Data on five compounds can be found in patent US12540117B2, “Aniline compound used as RORγ regulator” (SHANGHAI LITEDD CO., LTD., priority 2020, dated 2026).

Molecules are shown by their SMILES.

For one data set, the target named is T1, RORγt (Homo sapiens, UniProt P51449).
T1 sequence (P51449 269-508 limits assumed): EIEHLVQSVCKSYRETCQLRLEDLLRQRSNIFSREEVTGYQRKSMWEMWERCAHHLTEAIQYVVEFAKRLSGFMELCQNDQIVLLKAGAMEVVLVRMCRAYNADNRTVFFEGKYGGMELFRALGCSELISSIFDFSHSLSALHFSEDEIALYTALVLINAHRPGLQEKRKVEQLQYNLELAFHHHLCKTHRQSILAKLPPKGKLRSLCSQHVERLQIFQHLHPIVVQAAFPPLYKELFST
The experiment in a line: In vitro luciferase reporter assay of RORγt inhibition (GAL4-RORγ-LBD in HEK293T). The following applies: for Emax: HEK-293T, relative maximum inhibition rate relative to AZD-0284 at 10 μM; for IC50: IC50, RORγt luciferase reporter gene, HEK293T.

In data set [1] the test system is Th17 cells differentiation and secretion of IL-17. The experiment in a line: Inhibition of Th17 differentiation in human PBMC (IL-17 ELISA). The data set is classed as cell-based. The following applies: for Emax: Homo sapiens, PBMC, maximum inhibition rate, maximum concentration 3 μM; for IC50: IL-17 secretion, human PBMC, 48 hours. As to the method: Test procedure: the PBMC cells were first thawed and plated, and then stimulated with the stimulating factors (anti-hCD28: 5 μg/mL; rhTGF-β1: 5 ng/mL; rhIL-6: 20 ng/mL; rhIL-23: 10 ng/mL) to differentiate to Th17, while different concentrations of compounds were added, with the maximum concentration starting from 3 μM. After 48 hours, the supernatant was collected for IL-17 ELISA detection. The inhibition rates of the compounds to inhibit the secretion of IL-17 by Th17 cells were determined, as compared with the vehicle group, and the IC50 values were fitted with Graphad8.0.
(In an ELISA, binding on a coated surface is turned into a signal by an enzyme label.)

Data set [2] is described as follows: Metabolic stability in human liver microsomes. The format is in vitro ADME. The following applies: for half-life: 0.5 mg protein/mL; for microsomal CLint: read-out: CLint(mic). From the text:
(§1) According to standard methods for investigating in vitro metabolic stability in the art, e.g., the methods described in Kerns, Edward H. and Di Li (2008). Drug-like Properties: Concepts, Structure Design and Methods: from ADME to Toxicity Optimisation. San Diego: Academic Press; Di, Li et al., Optimisation of a Higher Throughput Microsomal Stability Screening Assay for Profiling Drug Discovery Candidates, J. Biomol. Screen. 2003, 8(4), 453, the liver microsomal metabolic stability test of the compounds of the present disclosure was carried out analogously as follows. The incubation system comprising 0.5 mg protein/mL microsomes, cofactors, and PBS, was pre-incubated at 37° C. for 3 min, and then added the substrate (i.e., the test compounds) to initiate the reaction. Samples were taken at 0, 1, 5, 10, 15, 20, 30 and 60 min from the start of the reaction, and an appropriate terminator was added to terminate the reaction. Sample treatment (n=3): appropriate samples were added respectively, vortexed and centrifuged at high speed. The supernatants were collected and detected for the substrate by HPLC-MS/MS. The peak area at the 0 mm was taken as 100%. The peak areas at other time points were converted to percentages of remaining. The natural logarithms of the percentages of remaining at each time point was plotted against the incubation time, and the slope (−k) was calculated by linear regression. Then, Clint (μL/min/mg) and half-life (T½, min.) of the compounds were calculated following the equation: Inherent clearance rate (Clint)=(k*Volume of incubation solution)/Mass of liver microsomes.
(In general: Liver microsomes are vesicles of endoplasmic reticulum, rich in cytochrome P450 enzymes.)

Data set [3] is described as follows: Pharmacokinetic (PK) assay in mice. The format is in vivo, C57BL/6 mice. The conditions noted are these: for AUC(0-t) / Cmax / half-life / Vd / bioavailability: C57BL/6, mouse, plasma; for Vd: read-out: Vss; for bioavailability: Po 5 mg/kg vs IV 1 mg/kg. The method, then: The PK of each compound was determined as follows: 6 C57BL/6 mice (obtained from Shanghai Lingchang Biotechnology Co., Ltd.) were divided into two groups with 3 in each group. One group was administered intravenously at a dose of 1 mg/kg in the vehicle of 5% DMSO/95% (20% Captisol); the other group was administered by oral gavage at a dose of 5 mg/kg in the vehicle of 0.5% CMC-Na/0.5% Tween 80. Blood samples were collected from saphenous vein of lower leg in each group at 0, 0.083, 0.25, 0.5, 1, 2, 4, 6, 8 and 24 h after administration. Approximately 40 μL of the blood samples were collected into anticoagulant tubes containing EDTA-K2 Immediately after collection, the tubes were inverted at least 5 times to ensure uniform mixing, and then placed on ice. The blood samples collected at each time point were centrifuged at 4° C., 8000 rpm for 5 minutes to obtain plasma. Another 1.5 mL centrifuge tube was marked with the compound name, animal number, and time point, and the plasma was transferred to this tube. The plasma was stored at −80° C. until analysis.
Compound concentrations in the plasma were determined by UPLC-MS/MS method, and the pharmacokinetic parameters were calculated from the obtained data by Phoenix WinNolin 6.4 pharmacokinetic software.

Data set [4] is described as follows: Metabolic stability in mouse liver microsomes. The data set is classed as in vitro ADME, CD-1 mice. The following applies: for half-life: CD-1, 0.5 mg protein/mL; for microsomal CLint: CD-1, read-out: CLint(mic).
Source text: as §1

Source text for RORγt: The RORγ-LBD coding sequence was inserted into pBIND plasmid (Promega, E1581). The expression vector and a reporter vector (pGL4.35 carrying a stably integrated luciferase reporter gene driven by GAL4 promoter) were co-expressed in HEK293T host cells. When the inhibitor binds to the corresponding chimeric receptor, the chimeric receptor binds to the GAL4 binding site on the reporter gene carrier and inhibits reporter gene expression. The inhibition activity of the compounds on RORγ was determined according to the intensity of the chemiluminescence signal.
2.2 Cell Transfection • a) Balancing the Trans-IT transfection reagent at room temperature; • b) Adding 20 μl of the transfection reagent and 600 μl of Opti-MEM™ medium without contacting the tube wall, mixing uniformly through blowing and pipetting by a pipette gun, and allowing to stand at room temperature for 5 minutes; • c) Adding 10 μg of the plasmid to the transfection reagent (see Step 2.2.b), and allowing to stand at room temperature for 20 minutes; • Plasmids: 5 μg of pBIND-RORγ and 5 μg of pGL4.35 plasmids were respectively added therein; • d) Adding the mixed DNA transfection reagent to a 100 mm cell culture dish (see Step 2.1); • e) Placing the dish in an incubator at 37° C. and 5% CO2 for 5 h. […] Calculation of % Inhibition
[formula] • RLUcmpd: fluorescence value of test compounds • RLUpositive: average value of positive control • RLUvehicle: average value of negative control
IC50s of the compounds were calculated by fitting the % Inhibition and the logarithm values of the compound concentration using Graphad 8.0.

A word on the Emax: it is the maximal effect, on the per cent scale that the assay sets. By IC50 is commonly meant the midpoint of a concentration-inhibition curve. Read a low IC50 as greater potency. By half-life is commonly meant the time needed for the level to fall by half in the phase considered. What is called AUC(0-t) is exposure summed from dosing to a finite time, without extrapolation to infinity. Lower therefore signals low exposure. A word on the Cmax: it is the highest concentration seen after dosing. On RORγt, `CCS(=O)(=O)c1ccc2c(c1)CCN(C(C)=O)C2C(=O)Nc1ccc(C(O)(C(F)(F)F)C(F)(F)F)cc1` (racemic) [Example 1, 2-Acetyl-6-(ethylsulfonyl)-N-(4-(1,1,1,3,3,3-hexafluoro-2-hydroxypropan-2-yl)phenyl)-1,2,3,4-tetrahydroisoquinoline-1-carboxamide] registered an Emax of 102% and a 50% inhibitory concentration (IC50) of 19.1 nM. In data set [1], this compound showed an Emax of 79% and an IC50 of 51.4 nM. Moreover, in data set [2], the half-life was greater than 2.42 h, the “Remaining % (T = 60 min)” value was 94.2% and the microsomal CLint is less than 9.6 µL/min/mg. For the same compound, in data set [3] (IV, 1 mg/kg), the AUC(0-t) came out at 1850 ng·h/mL, the Cmax worked out at 1390 ng/mL, the half-life was 5.09 h and the Vd is 2.71 L/kg. This compound also came in with a CL_obs in data set [3] (IV, 1 mg/kg) of 7.12 mL/min/kg. For the same compound, the bioavailability in data set [3] was 84%. Further, in data set [3] (Po, 5 mg/kg), the area under the curve AUC(0-t) came out at 9640 ng·h/mL, the Cmax was 816 ng/mL and the half-life is 3.91 h. In data set [4], the half-life was greater than 2.42 h, the microsomal CLint was less than 9.6 µL/min/mg and the “Remaining % (T = 60 min)” value is listed as 94.5%.
On to `CCS(=O)(=O)c1ccc2c(c1)CCN(C(C)=O)C2C(=O)Nc1ccc(C(F)(C(F)(F)F)C(F)(F)F)cc1` (racemic) [Example 7, 2-Acetyl-6-(ethylsulfonyl)-N-(4-(perfluoropropan-2-yl)phenyl)-1,2,3,4-tetrahydroisoquinoline-1-carboxamide], for which, on RORγt, the Emax came out at 99.6% and the IC50 was determined as 12.4 nM. In data set [1], this compound returned an Emax of 72% and an IC50 of 21.1 nM. Further, in data set [2], the half-life came out at 1.26 h, the “Remaining % (T = 60 min)” value stood at 61.0% and the microsomal CLint was determined as 18.4 µL/min/mg. In data set [3] (IV, 1 mg/kg), the AUC(0-t) was 4870 ng·h/mL, the highest level (Cmax) was 703 ng/mL, the half-life was 39.9 h and the Vd came out at 4.02 L/kg. In addition, the CL_obs in data set [3] (IV, 1 mg/kg) was determined as 1.23 mL/min/kg. For the same compound, the bioavailability in data set [3] turned out to be 83.5%. In data set [3] (Po, 5 mg/kg), this compound showed an area under the curve AUC(0-t) of 20300 ng·h/mL, a Cmax of 1080 ng/mL and a half-life of 37.6 h. Besides, in data set [4], the half-life is greater than 2.42 h, the microsomal CLint was less than 9.6 µL/min/mg and the “Remaining % (T = 60 min)” value is given as 79.7%.
At RORγt, `CCS(=O)(=O)c1ccc2c(c1)CCN(C(C)=O)C2C(=O)Nc1ccc(C(O)(C(F)(F)F)C(F)(F)F)cc1` (single isomer, unassigned) [Example 2, (R)-2-acetyl-6-(ethylsulfonyl)-N-(4-(1,1,1,3,3,3-hexafluoro-2-hydroxypropan-2-yl)phenyl)-1,2,3,4-tetrahydroisoquinoline-1-carboxamide or (S)-2-acetyl-6-(ethylsulfonyl)-N-(4-(1,1,1,3,3,3-hexafluoro-2-hydroxypropan-2-yl)phenyl)-1,2,3,4-tetrahydroisoquinoline-1-carboxamide] came in with an Emax of 100% and an IC50 of 8 nM. Also, in data set [1], the Emax worked out at 78.3% and the IC50 came to 22.7 nM. In data set [2], the half-life was greater than 2.42 h, the “Remaining % (T = 60 min)” value amounted to 82.2% and the microsomal CLint was less than 9.6 µL/min/mg. In data set [3] (IV, 1 mg/kg), the AUC(0-t) amounted to 1300 ng·h/mL, the highest level (Cmax) was 2310 ng/mL, the half-life was 1.78 h and the Vd came to 1.06 L/kg. In addition, the CL_obs in data set [3] (IV, 1 mg/kg) came out at 12.8 mL/min/kg. In addition, in data set [3], the bioavailability was determined as 82.1%. In data set [3] (Po, 5 mg/kg), this compound gave an AUC(0-t) of 5330 ng·h/mL, a Cmax of 553 ng/mL and a half-life of 3.31 h. Moreover, in data set [4], the half-life is greater than 2.42 h, the microsomal CLint was less than 9.6 µL/min/mg and the “Remaining % (T = 60 min)” value is reported as 102.3%.
Regarding `CC(=O)N1CCc2cc(S(C)(=O)=O)ccc2C1C(=O)Nc1ccc(C(O)(C(F)(F)F)C(F)(F)F)cc1` (centres unmarked) [Example 5, 2-Acetyl-N-(4-(1,1,1,3,3,3-hexafluoro-2-hydroxypropan-2-yl)phenyl)-6-(methylsulfonyl)-1,2,3,4-tetrahydroisoquinoline-1-carboxamide], in data set [2], the half-life is greater than 2.42 h, the “Remaining % (T = 60 min)” value is on record as 85.0% and the microsomal CLint is less than 9.6 µL/min/mg. Also, in data set [3] (IV, 1 mg/kg), the AUC(0-t) came to 1190 ng·h/mL, the peak level (Cmax) was 1890 ng/mL, the half-life is 4.89 h and the Vd came to 3.34 L/kg. Besides, the CL_obs in data set [3] (IV, 1 mg/kg) was determined as 13.8 mL/min/kg. For the same compound, in data set [3], the bioavailability is 213%. In addition, in data set [3] (Po, 5 mg/kg), the AUC(0-t) was 12600 ng·h/mL, the peak level (Cmax) was 1370 ng/mL and the half-life is 4.33 h. In addition, in data set [4], the half-life was greater than 2.42 h, the microsomal CLint is less than 9.6 µL/min/mg and the “Remaining % (T = 60 min)” value was 86.6%.
On RORγt, `CCS(=O)(=O)c1cc2c(s1)C(C(=O)Nc1ccc(C(O)(C(F)(F)F)C(F)(F)F)cc1)N(C(C)=O)CC2` (centres unmarked) [Example 6, 6-Acetyl-2-(ethylsulfonyl)-N-(4-(1,1,1,3,3,3-hexafluoro-2-hydroxypropan-2-yl)phenyl)-4,5,6,7-tetrahydrothieno[2,3-c]pyridine-7-carboxamide] showed an Emax of 99.9% and an IC50 of 113 nM. In data set [2], the half-life is greater than 2.42 h, the “Remaining % (T = 60 min)” value is reported as 70.2% and the microsomal CLint was less than 9.6 µL/min/mg. Besides, in data set [4], the half-life came out at 1.54 h, the microsomal CLint was found to be 14.9 µL/min/mg and the “Remaining % (T = 60 min)” value stood at 59.4%.
